Activity calls are given as the source filed them. The calls are words filed in the database; no cut-off is given here.

The term IC50 denotes the concentration at which inhibition is half-maximal.

The subject of one assay is PC-12. The experiment in a line: Neuroprotective activity in H2O2-induced oxidative damage in rat PC12 cells assessed as increase in cell survival rate at 1 to 10 uM pre-incubated for 2 hrs followed by H2O2 addition and measured after 24 hrs by MTT assay. In kind it is functional, cell-based. The following applies: dose 1-10 µM, time 26.0 hrs.
The test system of a further assay is BV-2. The experiment in a line: Antineuroinflammatory activity in LPS-induced mouse BV-2 microglial cells assessed as inhibition of nitric oxide production incubated for 24 hrs by Griess reagent assay. The following applies: BV-2, 24 h. In kind it is functional, cell-based. In general terms: Griess reagent forms a coloured azo dye with nitrite.
The next assay concerns Caenorhabditis elegans. The assay is described as follows: Anti-alzheimer activity in transgenic Caenorhabditis elegans UM0001 expressing Amyloid-beta/Tau assessed as decrease in dyskinesia measured for 30 mins by basal slowing response assay. The class given is functional, organism-based. The following applies: dose 1-4 µM.

`CCCC[C@@H](CCCCCCCCCCC(=O)C=O)O[C@@H]1O[C@H](CO[C@H]2O[C@H](C)[C@@H](O)[C@@H](O)[C@H]2O)[C@@H](O)[C@H](O)[C@H]1O[C@@H]1O[C@H](CO)[C@@H](O)[C@H](O[C@@H]2O[C@H](CO)[C@@H](O)[C@H](O)[C@H]2O)[C@H]1O[C@@H]1O[C@@H](C)[C@H](OC(=O)[C@H](C)[C@@H](C)OC(=O)[C@H](C)[C@@H](C)O[C@@H]2O[C@H](C)[C@@H](O)[C@H](O)[C@H]2O[C@@H]2O[C@H](CO)[C@@H](O)[C@H](O)[C@H]2O)[C@@H](O[C@@H]2O[C@H](CO)[C@@H](O)[C@H](O)[C@H]2O)[C@H]1O`: the result in the assay on PC-12 was Active.

Regarding `C/C=C(\C)C(=O)OC[C@H]1O[C@@H](O[C@H]2[C@H](O)[C@@H](CO)O[C@@H](O[C@H]3[C@H](O[C@@H](CCCC)CCCCCCCCCCC(=O)OC)O[C@H](CO[C@@H]4O[C@H](C)[C@H](O)[C@H](O)[C@H]4O)[C@@H](O)[C@@H]3O)[C@@H]2O[C@@H]2O[C@@H](C)[C@H](OC(=O)[C@H](C)[C@@H](C)OC(=O)[C@H](C)[C@@H](C)O[C@@H]3O[C@H](C)[C@@H](O)[C@H](O)[C@H]3O)[C@@H](O[C@@H]3O[C@H](CO)[C@@H](O)[C@H](O)[C@H]3O)[C@H]2O)[C@H](O)[C@@H](O)[C@@H]1O`, in the assay with BV-2, the IC50 was 9.7 µM.

For the molecule `C/C=C(\C)C(=O)OC[C@H]1O[C@@H](O[C@H]2[C@H](O)[C@@H](CO)O[C@@H](O[C@H]3[C@H](O[C@@H](CCCC)CCCCCCCCCCC(=O)OC)O[C@H](CO[C@@H]4O[C@H](C)[C@H](O)[C@H](O)[C@H]4O)[C@@H](O)[C@@H]3O)[C@@H]2O[C@@H]2O[C@@H](C)[C@H](OC(=O)[C@H](C)[C@@H](C)OC(=O)[C@H](C)[C@@H](C)O[C@@H]3O[C@H](C)[C@@H](O)[C@H](O)[C@H]3O)[C@@H](O[C@@H]3O[C@H](CO)[C@@H](O)[C@H](O)[C@H]3O)[C@H]2O)[C@H](O)[C@@H](O[C@@H]2O[C@H](CO)[C@@H](O)[C@H](O)[C@H]2O)[C@@H]1O`, the IC50 in the assay with BV-2 came to 19.1 µM. In the assay on PC-12, the outcome was Active.

In the case of `C/C=C(\C)C(=O)OC[C@H]1O[C@@H](O[C@H]2[C@H](O)[C@@H](COC(=O)[C@H](C)[C@@H](C)O)O[C@@H](O[C@H]3[C@H](O[C@@H](CCCC)CCCCCCCCCCC(=O)OC)O[C@H](CO[C@@H]4O[C@@H](C)[C@H](O)[C@@H](O)[C@H]4O)[C@@H](O)[C@@H]3O)[C@@H]2O[C@@H]2O[C@@H](C)[C@H](OC(=O)[C@H](C)[C@@H](C)OC(=O)[C@H](C)[C@@H](C)O[C@@H]3O[C@H](C)[C@@H](O)[C@H](O)[C@H]3O)[C@@H](O[C@@H]3O[C@H](CO)[C@@H](O)[C@H](O)[C@H]3O)[C@H]2O)[C@H](O)[C@@H](O[C@@H]2O[C@H](CO)[C@@H](O)[C@H](O)[C@H]2O)[C@@H]1O`, the result with PC-12 was Active. Moreover, in the assay with Caenorhabditis elegans, the Activity entry is “Dose-dependent-effect”.

Consider `C/C=C(\C)C(=O)OC[C@H]1O[C@@H](O[C@H]2[C@H](O)[C@@H](COC(=O)[C@H](C)[C@@H](C)O)O[C@@H](O[C@H]3[C@H](O[C@@H](CCCC)CCCCCCCCCCC(=O)OC)O[C@H](CO[C@@H]4O[C@H](C)[C@H](O)[C@H](O)[C@H]4O)[C@@H](O)[C@@H]3O)[C@@H]2O[C@@H]2O[C@@H](C)[C@H](OC(=O)[C@H](C)[C@@H](C)OC(=O)[C@H](C)[C@@H](C)O[C@@H]3O[C@H](C)[C@@H](O)[C@H](O)[C@H]3O)[C@@H](O[C@@H]3O[C@H](CO)[C@@H](O)[C@H](O)[C@H]3O)[C@H]2O)[C@H](O)[C@@H](O[C@@H]2O[C@H](CO)[C@@H](O)[C@H](O)[C@H]2O)[C@@H]1O`, for which the IC50 in the assay on BV-2 came to 6.73 µM. For the same molecule, in the assay on Caenorhabditis elegans, the Activity result was “Dose-dependent-effect”.

The values above are taken from ChEMBL document CHEMBL6153100, “Controlins I-X, Resin Glycosides from the Seeds of Convolvulus tricolor and Their Biological Activities” (J Nat Prod, 2025).
